The text below walks through data of patent publication EP4582423A1, “NOVEL TRICYCLIC DERIVATIVE COMPOUND AND USES THEREOF” (Hanmi Pharm. Co., Ltd., priority 2022, dated 2024).

Some results are limits rather than exact numbers.

The subject of this assay is HCT116 MTAP-/- cells. In words: Cell growth inhibition test (SRB staining). The format is cell-based. Conditions: Homo sapiens, HCT-116, 144 h; HCT116 MTAP-/- cells, 0.64 nM - 2,000 nM, 6 dose points, 6 days, SRB staining, absorbance at 540 nm; read-out: HCT116 MTAP-/- cell growth inhibition (GI50). As for the experimental part: The synthetic compounds above were tested for cell growth inhibition against HCT116 cells.
HCT116 MTAP-/- (homozygous knockout of MTAP gene in HCT116 MTAP-WT cells by CRISPER/Cas9 method) cells were maintained in RPMI1640 medium containing 10 % FBS and 1 % penicillin-streptomycin. Approximately 5×10^2 cells were seeded in a 96-well plate and treated with a test compound. (0.64 nM - 2,000 nM, 6 dose points for HCT116 MTAP-/- cells for 5x and 6 days) cell growth was measured by SRB staining and absorbance was detected at 540 nm on a Synergy™ NEO microplate reader. The 50 % growth inhibition value (GI50) of the cell line was calculated using GraphPad Prism V9 software.
For `COc1ccc(Sc2nc3c(=O)n(-c4ccccc4)c4cc(Cl)ccc4c3n2C)cc1` [Compound 18, 7-chloro-2-((4-methoxyphenyl)thio)-1-methyl-5-phenyl-1,5-dihydro-4H-imidazo[4,5-c]quinolin-4-one], the GI50 was under 100 nM.

Regarding `COc1ccc(S(=O)(=O)c2nc3c(=O)n(-c4ccccc4)c4cc(Cl)ccc4c3n2C)cc1` [Compound 19, 7-chloro-2-((4-methoxyphenyl)sulfonyl)-1-methyl-5-phenyl-1,5-dihydro-4H-imidazo[4,5-c]quinolin-4-one], the GI50 lay within 500 to 1000 nM.

In the case of `COc1ccc([S+]([O-])c2nc3c(=O)n(-c4ccccc4)c4cc(Cl)ccc4c3n2C)cc1` (stereo not shown) [Compound 20, 7-chloro-2-((4-methoxyphenyl)sulfinyl)-1-methyl-5-phenyl-1,5-dihydro-4H-imidazo[4,5-c]quinolin-4-one], the GI50 was in the range of 500 to 1000 nM. In the case of `COc1ccc(Cc2nc3c(=O)n(-c4cccnc4C)c4cc(Cl)ccc4c3n2C)cc1` [Compound 21, 7-chloro-2-(4-methoxybenzyl)-1-methyl-5-(2-methylpyridin-3-yl)-1,5-dihydro-4H-imidazo[4,5-c]quinolin-4-one], the GI50 is under 100 nM.

`COc1ccc(Cc2nc3c(=O)n(-c4cccnc4C)c4ccccc4c3n2C)cc1` [Compound 22, 2-(4-methoxybenzyl)-1-methyl-5-(2-methylpyridin-3-yl)-1,5-dihydro-4H-imidazo[4,5-c]quinolin-4-one]: the GI50 was 500 to 1000 nM. The result for `COc1ccc(Cc2nc3c(=O)n(-c4cccnc4C(F)(F)F)c4cc(Cl)ccc4c3n2C)cc1` [Compound 23, 7-chloro-2-(4-methoxybenzyl)-1-methyl-5-(2-(trifluoromethyl)pyridin-3-yl)-1,5-dihydro-4H-imidazo[4,5-c]quinolin-4-one] reads 100 to 500 nM.

For `COc1ccc(Cc2nc3c(=O)n(-c4cccnc4C4CC4)c4cc(Cl)ccc4c3n2C)cc1` [Compound 24, 7-chloro-5-(2-cyclopropylpyridin-3-yl)-2-(4-methoxybenzyl)-1-methyl-1,5-dihydro-4H-imidazo[4,5-c]quinolin-4-one], the GI50 lay in the range of 100 to 500 nM. The result for `COc1ccc(Cc2nc3c(=O)n(-c4ccccc4C(F)(F)F)c4cc(Cl)ccc4c3n2C)cc1` [Compound 25, 7-chloro-2-(4-methoxybenzyl)-1-methyl-5-(2-(trifluoromethyl)phenyl)-1,5-dihydro-4H-imidazo[4,5-c]quinolin-4-one] reads 100 to 500 nM; that for `COc1ccc(Cc2nc3c(=O)n(-c4ccccc4Cl)c4cc(Cl)ccc4c3n2C)cc1` [Compound 26, 7-chloro-5-(2-chlorophenyl)-2-(4-methoxybenzyl)-1-methyl-1,5-dihydro-4H-imidazo[4,5-c]quinolin-4-one], 100 to 500 nM. As for `COc1ccc(Cc2nc3c(=O)n(-c4cccnc4C)c4cc(C(F)(F)F)ccc4c3n2C)cc1` [Compound 27, 2-(4-methoxybenzyl)-1-methyl-5-(2-methylpyridin-3-yl)-7-(trifluoromethyl)-1,5-dihydro-4H-imidazo[4,5-c]quinolin-4-one], the figure is under 100 nM; as for `Cc1ncccc1-n1c(=O)c2nc(Cc3ccc(F)cc3)n(C)c2c2ccc(Cl)cc21` [Compound 28, 7-chloro-2-(4-fluorobenzyl)-1-methyl-5-(2-methylpyridin-3-yl)-1,5-dihydro-4H-imidazo[4,5-c]quinolin-4-one], under 100 nM; as for `Cc1ncccc1-n1c(=O)c2nc(Cc3ccc4c(c3)OCO4)n(C)c2c2ccc(Cl)cc21` [Compound 29, 2-(benzo[d][1,3]dioxol-5-ylmethyl)-7-chloro-1-methyl-5-(2-methylpyridin-3-yl)-1,5-dihydro-4H-imidazo[4,5-c]quinolin-4-one], under 100 nM.

On to `Cc1ncccc1-n1c(=O)c2nc(Cc3ccc(F)c(F)c3)n(C)c2c2ccc(Cl)cc21` [Compound 30, 7-chloro-2-(3,4-difluorobenzyl)-1-methyl-5-(2-methylpyridin-3-yl)-1,5-dihydro-4H-imidazo[4,5-c]quinolin-4-one], for which the GI50 was under 100 nM.
